Reference: the kinase profiling compilation of Christmann-Franck et al. (2016)

What was measured:
Experiment in all cases: KINOMEscan competition binding
Conditions in all cases: compound 1.0 µM
MAP3K9 (human) = MAP3K9 (human) (UniProt P80192)
ULK2 (human) = ULK2 (human) (UniProt Q8IYT8)
STK32C (human) = STK32C (human) (UniProt Q86UX6)
MAP3K15 (human) = MAP3K15 (human) (UniProt Q6ZN16)
PIK3CD (human) = PIK3CD (human) (UniProt O00329)
NEK2 (human) = NEK2 (human) (UniProt P51955)
EPHA3 (human) = EPHA3 (human) (UniProt P29320)
ERBB3 (human) = ERBB3 (human) (UniProt P21860)
FGFR3 (human) = FGFR3 (human) (UniProt P22607)
MKNK2 (human) = MKNK2 (human) (UniProt Q9HBH9)
NEK9 (human) = NEK9 (human) (UniProt Q8TD19)
MINK1 (human) = MINK1 (human) (UniProt Q8N4C8)
[1] = system: RET (human), P07949 [M918T]
[2] = system: ABL1 (human), P00519 [M351T]
ACVR2B (human) = ACVR2B (human) (UniProt Q13705)
EGFR (human) = EGFR (human) (UniProt P00533)
TNK2 (human) = TNK2 (human) (UniProt Q07912)
PKN3 (M.tuberculosis) = PKN3 (M.tuberculosis) (UniProt Q6P5Z2)
MAP3K5 (human) = MAP3K5 (human) (UniProt Q99683)
CDK17 (human) = CDK17 (human) (UniProt Q00537)
PIP5K1A (human) = PIP5K1A (human) (UniProt Q99755)
EPHA1 (human) = EPHA1 (human) (UniProt P21709)
TEK (human) = TEK (human) (UniProt Q02763)
PRKCQ (human) = PRKCQ (human) (UniProt Q04759)
BMPR1A (human) = BMPR1A (human) (UniProt P36894)
TNIK (human) = TNIK (human) (UniProt Q9UKE5)
RPS6KA1 KD2 (human) = RPS6KA1 KD2 (human) (UniProt Q15418)
PDGFRA (human) = PDGFRA (human) (UniProt P16234)
NEK1 (human) = NEK1 (human) (UniProt Q96PY6)
[3] = system: RET (human), P07949 [V804M]
PRKG1 (human) = PRKG1 (human) (UniProt Q13976)
FLT1 (human) = FLT1 (human) (UniProt P17948)
STK3 (human) = STK3 (human) (UniProt Q13188)
CDK13 (human) = CDK13 (human) (UniProt Q14004)
MYO3B (human) = MYO3B (human) (UniProt Q8WXR4)
MARK4 (human) = MARK4 (human) (UniProt Q96L34)
ACVR2A (human) = ACVR2A (human) (UniProt P27037)
MAP4K3 (human) = MAP4K3 (human) (UniProt Q8IVH8)
[4] = system: EGFR (human), P00533 [G719C]
CAMK2D (human) = CAMK2D (human) (UniProt Q13557)
ACVR1 (human) = ACVR1 (human) (UniProt Q04771)
STK11 (human) = STK11 (human) (UniProt Q15831)
CHUK (human) = CHUK (human) (UniProt O15111)

Sequence of EPHA3 (human) (P29320 whole entry, looked up): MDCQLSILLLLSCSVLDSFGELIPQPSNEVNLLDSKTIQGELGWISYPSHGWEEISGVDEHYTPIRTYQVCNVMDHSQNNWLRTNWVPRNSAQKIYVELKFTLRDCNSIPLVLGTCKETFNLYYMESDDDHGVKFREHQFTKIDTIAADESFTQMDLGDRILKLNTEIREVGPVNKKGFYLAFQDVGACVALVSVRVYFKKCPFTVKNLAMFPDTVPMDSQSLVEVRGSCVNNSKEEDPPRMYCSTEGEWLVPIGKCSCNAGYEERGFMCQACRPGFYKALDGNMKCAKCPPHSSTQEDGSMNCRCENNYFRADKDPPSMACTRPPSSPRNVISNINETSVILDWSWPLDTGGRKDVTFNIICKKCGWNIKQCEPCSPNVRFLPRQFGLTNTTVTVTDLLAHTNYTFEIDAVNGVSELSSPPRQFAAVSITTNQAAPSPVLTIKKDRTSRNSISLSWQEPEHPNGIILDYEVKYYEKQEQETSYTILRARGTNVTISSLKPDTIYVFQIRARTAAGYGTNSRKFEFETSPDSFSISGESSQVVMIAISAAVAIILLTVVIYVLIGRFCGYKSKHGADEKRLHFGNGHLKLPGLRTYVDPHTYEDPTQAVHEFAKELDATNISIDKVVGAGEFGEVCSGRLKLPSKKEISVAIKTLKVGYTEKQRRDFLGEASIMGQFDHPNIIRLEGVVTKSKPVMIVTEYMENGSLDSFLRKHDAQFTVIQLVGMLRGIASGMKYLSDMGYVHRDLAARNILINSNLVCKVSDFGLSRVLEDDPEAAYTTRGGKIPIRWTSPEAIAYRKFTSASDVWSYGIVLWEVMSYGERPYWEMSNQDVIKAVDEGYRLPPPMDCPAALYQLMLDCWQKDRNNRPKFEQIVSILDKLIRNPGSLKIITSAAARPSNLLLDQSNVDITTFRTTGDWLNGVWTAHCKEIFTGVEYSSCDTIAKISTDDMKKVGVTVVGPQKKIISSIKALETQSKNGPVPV
Sequence of MAP3K9 (human) (P80192 whole entry, looked up): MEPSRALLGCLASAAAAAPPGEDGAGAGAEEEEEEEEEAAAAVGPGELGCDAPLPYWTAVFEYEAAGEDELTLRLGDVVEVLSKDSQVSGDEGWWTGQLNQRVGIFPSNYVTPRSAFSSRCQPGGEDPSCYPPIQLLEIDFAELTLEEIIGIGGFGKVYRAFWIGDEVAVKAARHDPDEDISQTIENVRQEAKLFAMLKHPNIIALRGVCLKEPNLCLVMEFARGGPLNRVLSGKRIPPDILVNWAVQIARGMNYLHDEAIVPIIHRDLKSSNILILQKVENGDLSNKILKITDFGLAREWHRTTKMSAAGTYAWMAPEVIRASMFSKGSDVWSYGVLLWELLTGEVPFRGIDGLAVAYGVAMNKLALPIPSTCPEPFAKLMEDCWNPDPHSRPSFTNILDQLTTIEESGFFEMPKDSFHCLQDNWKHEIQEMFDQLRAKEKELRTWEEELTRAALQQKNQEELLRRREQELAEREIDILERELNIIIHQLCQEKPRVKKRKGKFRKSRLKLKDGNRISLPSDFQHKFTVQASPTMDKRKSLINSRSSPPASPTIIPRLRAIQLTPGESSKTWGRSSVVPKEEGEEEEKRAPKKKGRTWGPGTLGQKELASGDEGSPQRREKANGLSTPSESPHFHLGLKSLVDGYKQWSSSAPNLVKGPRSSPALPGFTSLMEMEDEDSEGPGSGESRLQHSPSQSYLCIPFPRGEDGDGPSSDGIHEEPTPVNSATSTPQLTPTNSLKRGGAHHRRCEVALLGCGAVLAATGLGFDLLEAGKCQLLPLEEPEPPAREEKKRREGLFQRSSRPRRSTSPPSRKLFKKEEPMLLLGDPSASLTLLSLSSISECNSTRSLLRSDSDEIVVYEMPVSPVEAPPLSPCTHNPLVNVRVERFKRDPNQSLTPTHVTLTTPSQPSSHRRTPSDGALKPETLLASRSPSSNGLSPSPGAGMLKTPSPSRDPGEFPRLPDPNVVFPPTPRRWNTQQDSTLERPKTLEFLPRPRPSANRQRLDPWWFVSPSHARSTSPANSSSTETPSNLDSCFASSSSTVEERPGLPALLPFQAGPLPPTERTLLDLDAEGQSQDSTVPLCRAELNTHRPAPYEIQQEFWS
Sequence of NEK1 (human) (Q96PY6 whole entry, looked up): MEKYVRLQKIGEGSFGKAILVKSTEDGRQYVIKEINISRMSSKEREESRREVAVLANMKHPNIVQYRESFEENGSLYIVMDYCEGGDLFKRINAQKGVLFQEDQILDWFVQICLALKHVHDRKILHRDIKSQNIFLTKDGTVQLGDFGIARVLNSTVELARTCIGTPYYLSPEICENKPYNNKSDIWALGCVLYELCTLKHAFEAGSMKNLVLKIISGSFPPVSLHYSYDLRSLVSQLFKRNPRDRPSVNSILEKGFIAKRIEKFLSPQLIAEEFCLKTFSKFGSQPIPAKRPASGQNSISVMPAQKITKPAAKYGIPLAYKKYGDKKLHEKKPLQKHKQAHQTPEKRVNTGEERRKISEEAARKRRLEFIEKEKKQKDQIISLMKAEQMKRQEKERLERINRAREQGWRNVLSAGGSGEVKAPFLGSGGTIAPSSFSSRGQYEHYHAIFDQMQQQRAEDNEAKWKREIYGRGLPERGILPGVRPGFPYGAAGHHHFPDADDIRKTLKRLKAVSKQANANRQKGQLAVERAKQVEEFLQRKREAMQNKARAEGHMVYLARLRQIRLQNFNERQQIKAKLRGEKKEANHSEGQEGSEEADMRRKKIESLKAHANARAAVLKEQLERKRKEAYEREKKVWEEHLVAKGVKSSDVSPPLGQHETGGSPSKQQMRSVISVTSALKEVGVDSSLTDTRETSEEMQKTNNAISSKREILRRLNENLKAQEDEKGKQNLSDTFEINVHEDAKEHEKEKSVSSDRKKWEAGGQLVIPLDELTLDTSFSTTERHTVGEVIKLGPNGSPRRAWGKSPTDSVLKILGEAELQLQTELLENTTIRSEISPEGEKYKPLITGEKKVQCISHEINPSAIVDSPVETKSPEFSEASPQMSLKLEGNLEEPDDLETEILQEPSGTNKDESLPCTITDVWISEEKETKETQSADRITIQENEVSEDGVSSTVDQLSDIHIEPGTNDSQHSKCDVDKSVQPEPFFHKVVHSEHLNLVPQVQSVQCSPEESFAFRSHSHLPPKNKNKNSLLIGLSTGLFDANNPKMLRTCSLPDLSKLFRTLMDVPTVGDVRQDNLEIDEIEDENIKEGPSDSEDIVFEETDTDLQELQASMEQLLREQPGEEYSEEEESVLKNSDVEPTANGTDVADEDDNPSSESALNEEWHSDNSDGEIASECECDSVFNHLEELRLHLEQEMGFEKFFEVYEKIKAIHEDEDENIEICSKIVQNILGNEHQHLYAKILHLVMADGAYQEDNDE
Sequence of STK32C (human) (Q86UX6 whole entry, looked up): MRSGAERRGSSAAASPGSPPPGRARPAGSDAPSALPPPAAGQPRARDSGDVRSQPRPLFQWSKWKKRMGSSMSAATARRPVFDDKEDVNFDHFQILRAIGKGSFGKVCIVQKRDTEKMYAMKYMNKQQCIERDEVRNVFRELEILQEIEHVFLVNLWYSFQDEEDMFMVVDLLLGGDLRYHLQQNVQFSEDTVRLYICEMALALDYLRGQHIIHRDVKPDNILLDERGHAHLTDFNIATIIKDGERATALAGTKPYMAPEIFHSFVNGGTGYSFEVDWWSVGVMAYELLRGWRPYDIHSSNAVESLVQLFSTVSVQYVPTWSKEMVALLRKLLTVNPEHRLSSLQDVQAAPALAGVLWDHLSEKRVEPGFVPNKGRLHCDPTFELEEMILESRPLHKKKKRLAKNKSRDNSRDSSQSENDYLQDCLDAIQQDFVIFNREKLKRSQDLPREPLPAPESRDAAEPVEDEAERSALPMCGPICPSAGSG
Sequence of PKN3 (M.tuberculosis) (Q6P5Z2 whole entry, looked up): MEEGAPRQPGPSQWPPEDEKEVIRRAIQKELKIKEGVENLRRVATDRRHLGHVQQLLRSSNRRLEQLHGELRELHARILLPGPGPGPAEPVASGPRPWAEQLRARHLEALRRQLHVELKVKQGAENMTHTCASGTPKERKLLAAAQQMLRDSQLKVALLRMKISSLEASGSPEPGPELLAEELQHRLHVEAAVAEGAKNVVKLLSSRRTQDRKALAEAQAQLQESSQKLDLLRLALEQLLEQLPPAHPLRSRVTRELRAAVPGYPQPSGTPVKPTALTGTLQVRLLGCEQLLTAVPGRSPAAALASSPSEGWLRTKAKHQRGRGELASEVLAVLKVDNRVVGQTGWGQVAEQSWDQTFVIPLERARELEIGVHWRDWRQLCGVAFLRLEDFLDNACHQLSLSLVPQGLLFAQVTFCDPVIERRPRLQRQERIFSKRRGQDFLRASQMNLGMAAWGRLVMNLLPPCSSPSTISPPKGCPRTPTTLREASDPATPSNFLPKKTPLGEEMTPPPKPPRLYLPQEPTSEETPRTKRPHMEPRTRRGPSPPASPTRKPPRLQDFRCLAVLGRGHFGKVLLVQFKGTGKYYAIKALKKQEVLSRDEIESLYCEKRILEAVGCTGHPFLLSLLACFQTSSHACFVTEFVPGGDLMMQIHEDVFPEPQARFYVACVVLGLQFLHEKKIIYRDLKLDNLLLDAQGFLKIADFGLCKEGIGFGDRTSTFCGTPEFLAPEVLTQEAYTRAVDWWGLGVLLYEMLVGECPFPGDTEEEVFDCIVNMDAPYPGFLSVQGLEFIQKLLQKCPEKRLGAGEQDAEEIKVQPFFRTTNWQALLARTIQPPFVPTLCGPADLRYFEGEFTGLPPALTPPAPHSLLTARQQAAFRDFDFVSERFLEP

## CN(C)C/C=C/C(=O)Nc1cccc(C(=O)Nc2ccc(Nc3nccc(/C(C#N)=C4\Nc5ccccc5S4)n3)cc2)c1
MAP3K9 (human)
  kinase still bound, per cent of control: 100%
ULK2 (human)
  kinase still bound, per cent of control: 73%
STK32C (human)
  kinase still bound, per cent of control: 100%
MAP3K15 (human)
  kinase still bound, per cent of control: 100%
PIK3CD (human)
  kinase still bound, per cent of control: 100%
NEK2 (human)
  kinase still bound, per cent of control: 99%
EPHA3 (human)
  kinase still bound, per cent of control: 100%
ERBB3 (human)
  kinase still bound, per cent of control: 74%
FGFR3 (human)
  kinase still bound, per cent of control: 100%
MKNK2 (human)
  kinase still bound, per cent of control: 68%
NEK9 (human)
  kinase still bound, per cent of control: 100%
MINK1 (human)
  kinase still bound, per cent of control: 100%
[1]
  kinase still bound, per cent of control: 17%
[2]
  kinase still bound, per cent of control: 69%
ACVR2B (human)
  kinase still bound, per cent of control: 100%
EGFR (human)
  kinase still bound, per cent of control: 81%
TNK2 (human)
  kinase still bound, per cent of control: 70%
PKN3 (M.tuberculosis)
  kinase still bound, per cent of control: 53%
MAP3K5 (human)
  kinase still bound, per cent of control: 100%
CDK17 (human)
  kinase still bound, per cent of control: 100%
PIP5K1A (human)
  kinase still bound, per cent of control: 39%
EPHA1 (human)
  kinase still bound, per cent of control: 89%
TEK (human)
  kinase still bound, per cent of control: 100%
PRKCQ (human)
  kinase still bound, per cent of control: 100%
BMPR1A (human)
  kinase still bound, per cent of control: 100%
TNIK (human)
  kinase still bound, per cent of control: 100%
RPS6KA1 KD2 (human)
  kinase still bound, per cent of control: 100%
PDGFRA (human)
  kinase still bound, per cent of control: 100%
NEK1 (human)
  kinase still bound, per cent of control: 100%
[3]
  kinase still bound, per cent of control: 100%
PRKG1 (human)
  kinase still bound, per cent of control: 100%
FLT1 (human)
  kinase still bound, per cent of control: 32%
STK3 (human)
  kinase still bound, per cent of control: 91%
CDK13 (human)
  kinase still bound, per cent of control: 100%
MYO3B (human)
  kinase still bound, per cent of control: 100%
MARK4 (human)
  kinase still bound, per cent of control: 100%
ACVR2A (human)
  kinase still bound, per cent of control: 79%
MAP4K3 (human)
  kinase still bound, per cent of control: 91%
[4]
  kinase still bound, per cent of control: 86%
CAMK2D (human)
  kinase still bound, per cent of control: 100%
ACVR1 (human)
  kinase still bound, per cent of control: 100%
STK11 (human)
  kinase still bound, per cent of control: 90%
CHUK (human)
  kinase still bound, per cent of control: 100%
